Data: patent US20060199857A1, “Therapeutic agents” (ASTRAZENECA UK LIMITED, priority 2003, published 2006)

Molecular target: T1, human PPAR alpha (Homo sapiens, UniProt Q07869)
T1 sequence (Q07869 1-468): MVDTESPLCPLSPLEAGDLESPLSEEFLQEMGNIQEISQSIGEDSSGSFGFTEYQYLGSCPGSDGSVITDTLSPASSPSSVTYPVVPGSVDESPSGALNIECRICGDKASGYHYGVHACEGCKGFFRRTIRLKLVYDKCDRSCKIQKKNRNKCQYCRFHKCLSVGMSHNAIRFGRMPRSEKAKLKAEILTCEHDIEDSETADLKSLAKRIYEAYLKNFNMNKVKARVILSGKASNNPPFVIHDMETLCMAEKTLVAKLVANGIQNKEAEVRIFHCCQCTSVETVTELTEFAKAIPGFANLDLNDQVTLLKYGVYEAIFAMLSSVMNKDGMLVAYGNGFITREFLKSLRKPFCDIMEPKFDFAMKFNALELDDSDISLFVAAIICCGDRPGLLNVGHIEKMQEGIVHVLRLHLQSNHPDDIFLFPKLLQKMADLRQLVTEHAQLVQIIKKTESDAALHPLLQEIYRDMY
Experiment: PPAR alpha assay as described in WO03/051821
Type: cell-based
Settings: assay described in WO03/051821 (incorporated by reference)
Description: The compounds of the invention were tested in the assays described in WO03/051821 which is incorporated herein by reference.

EC50: 780 nM
SMILES: O=C(c1ccccc1)c1ccc(OCCc2ccc(CC(SCCc3ccc(O)cc3)C(=O)O)cc2)cc1 (stereo not shown) [Example 7, 3-{4-[2-(4-Benzoylphenoxy)ethyl]phenyl}-2-{[2-(4-hydroxyphenyl)ethyl]thio}propanoic acid]
